Our source for the IC50 values is patent US20250109118A1, “HETEROCYCLIC COMPOUNDS AS SHP2 INHIBITORS, COMPOSITIONS COMPRISING THE HETEROCYCLIC COMPOUND, AND METHODS OF USE THEREOF” (JS INNOMED HOLDINGS LTD., priority 2021, published 2025).

The target in one assay is T1, SHP2 (PTPN11/SHP2-FL) (Homo sapiens, UniProt Q06124).
T1 construct: SHP2 (PTPN11/SHP2-FL, RBC produced, no cat #); purchased RBC no cat #
T1 sequence (Q06124 1-593): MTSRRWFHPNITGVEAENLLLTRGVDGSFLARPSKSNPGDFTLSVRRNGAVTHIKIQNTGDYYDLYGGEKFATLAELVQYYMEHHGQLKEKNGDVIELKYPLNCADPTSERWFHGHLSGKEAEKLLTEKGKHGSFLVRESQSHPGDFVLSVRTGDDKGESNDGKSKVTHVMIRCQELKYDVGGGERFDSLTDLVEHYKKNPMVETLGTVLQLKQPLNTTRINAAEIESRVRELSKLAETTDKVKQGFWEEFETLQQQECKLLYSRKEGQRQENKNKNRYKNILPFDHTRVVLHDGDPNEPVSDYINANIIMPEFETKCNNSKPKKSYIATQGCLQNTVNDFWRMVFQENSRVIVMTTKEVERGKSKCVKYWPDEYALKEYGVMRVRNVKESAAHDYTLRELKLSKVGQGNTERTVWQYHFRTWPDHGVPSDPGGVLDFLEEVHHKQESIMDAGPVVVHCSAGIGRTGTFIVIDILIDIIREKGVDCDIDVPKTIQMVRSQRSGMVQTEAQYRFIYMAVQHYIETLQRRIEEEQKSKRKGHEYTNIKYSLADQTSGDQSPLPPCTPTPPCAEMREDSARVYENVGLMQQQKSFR
Nature of the assay: SHP2 biochemical assay (DiFMUP prompt fluorescence). The conditions noted are these: 0.5 nM SHP2, 0.35 μM activating peptide, DiFMUP 100 μM; read-out: SHP2 bichemical activity (IC50). As for the experimental part: SHP2 is allosterically activated through binding of bis-tyro syiphorphorylated peptides to its Src Homology 2 (SH2) domains. The latter activation step leads to the release of the auto-inhibitory interface of SHP2, which in turn renders the SHP2 PTP active and available for substrate recognition and reaction catalysis. The catalytic activity of SHP2 was monitored using the surrogate substrate DiFMUP in a prompt fluorescence assay format. Specifically, the phosphatase reactions were performed at room temperature in 384-well black polystyrene plate, flat bottom, low flange, non-binding surface (Corning, Cat #3575) using a final reaction volume of 20 μL and the following assay buffer conditions: 60 mM HEPES, pH 7.2, 75 mM NaCl, 75 mM KCl, 1 mM EDTA, 0.01% Brij-35, 5 mM DTT, and 10% DMSO (final). The inhibition of SHP2 from the tested compounds (final concentrations varying from 0.003-100 μM) was monitored using an assay in which 0.5 nM of SHP2 (PTPN11/SHP2-FL, RBC produced, no cat #) was incubated with 0.35 μM of the peptide H2NLN(pY)IDLDLV(dPEG8)LST(pY)ASINFQK-amide. After 20 minutes of incubation at room temperature, the surrogate substrate DiFMUP (6,8-difluoro-7-hydroxy-4-methylcoumarin, Invitrogen, cat #D6567, 100 μM final concentration) was added to the reaction. The fluorescence signal was monitored using a microplate reader (Envision, Perkin-Elmer) using excitation and emission wavelengths of 355 nm and 460 nm, respectively. The inhibitor dose response curves were analyzed using normalized IC50 regression curve fitting with control based normalization.
The IC50 values of for Compounds disclosed are listed in Table 2, A: ≤10 nM; B: >10 nM and ≤100 nM; C: >100 nM and ≤1 uM; and D: >1 μM.

Another assay deals with MiaPaCa-2 cells. Nature of the assay: MiaPaCa-2 Cell proliferation assay in 3D culture (CCK8). In kind it is cell-based. The settings on record: Homo sapiens, MIA PaCa-2, 120 h; 3D spheroid culture, 5 days with compound, CCK8 readout. In outline: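 Cells grown as spheroids (2500/well, ultra-low attachment, 10% FBS) for 24 h, then exposed 5 days to ten 3-fold compound dilutions at 0.1% DMSO. Viability by CCK8/WST-8, 1.5 h at 37 °C, absorbance 450 nm; IC50 from triplicates.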

For the compound `CC1(N)CCN(c2cnc(Sc3cccc(C(=O)NS(=O)(=O)c4ccccc4)c3Cl)cn2)CC1` [Example 3, 3-((5-(4-amino-4-methylpiperidin-1-yl)pyrazin-2-yl)thio)-2-chloro-N-(phenylsulfonyl)benzamide], the IC50 at SHP2 (PTPN11/SHP2-FL) is at most 10 nM; with MiaPaCa-2 cells it was 500 to 5000 nM.
The corresponding values for `CC1(CN)CCN(c2cnc(Sc3cccc(NC(=O)NS(C)(=O)=O)c3Cl)cn2)CC1` [Example 29, N-((3-((5-(4-(aminomethyl)-4-methylpiperidin-1-yl)pyrazin-2-yl)thio)-2-chlorophenyl)carbamoyl)methanesulfonamide] are at most 10 nM and at most 500 nM.
The like results for `Nc1nc(N2CCC3(CC2)COC[C@H]3N)cnc1Sc1cccc(C(=O)NS(=O)(=O)c2ccccc2)c1Cl` [Example 31, (S)-3-((3-amino-5-(4-amino-2-oxa-8-azaspiro[4.5]decan-8-yl)pyrazin-2-yl)thio)-2-chloro-N-(phenylsulfonyl)benzamide] were, in that order, at most 10 nM and at most 500 nM.
Take `CC1(N)CCN(c2cnc(Sc3cccc(C(=O)NS(C)(=O)=O)c3Cl)cn2)CC1` [Example 19, 3-((5-(4-amino-4-methylpiperidin-1-yl)pyrazin-2-yl)thio)-2-chloro-N-(methylsulfonyl)benzamide]: the figures for the IC50 on SHP2 (PTPN11/SHP2-FL) and in the assay on MiaPaCa-2 cells were 10 to 100 nM and 5000 to 50000 nM, respectively.
`CC1(CN)CCN(c2cnc(Sc3cccc(S(=O)(=O)NC(=O)c4ccccc4)c3Cl)cn2)CC1` [Example 7, N-((3-((5-(4-(aminomethyl)-4-methylpiperidin-1-yl)pyrazin-2-yl)thio)-2-chlorophenyl)sulfonyl)benzamide]: the IC50 on SHP2 (PTPN11/SHP2-FL) fell in the range of 10 to 100 nM; in the assay on MiaPaCa-2 cells, 500 to 5000 nM.
Consider `CC1(N)CCN(c2cnc(Sc3cccc(C(=O)NS(=O)(=O)C4CCCCC4)c3Cl)cn2)CC1` [Example 20, 3-((5-(4-amino-4-methylpiperidin-1-yl)pyrazin-2-yl)thio)-2-chloro-N-(cyclohexylsulfonyl)benzamide], for which the IC50 on SHP2 (PTPN11/SHP2-FL) was 10 to 100 nM; in the assay with MiaPaCa-2 cells, 5000 to 50000 nM.
The like results for `CC1(CN)CCN(c2cnc(Sc3cccc(C(=O)NS(C)(=O)=O)c3Cl)cn2)CC1` [Example 26, 3-((5-(4-(aminomethyl)-4-methylpiperidin-1-yl)pyrazin-2-yl)thio)-2-chloro-N-(methylsulfonyl)benzamide] were, in that order, at most 10 nM and at most 500 nM.
Turning to `CC1(CN)CCN(c2cnc(Sc3cccc(C(=O)NS(=O)(=O)c4cccnc4)c3Cl)cn2)CC1` [Example 24, 3-((5-(4-(aminomethyl)-4-methylpiperidin-1-yl)pyrazin-2-yl)thio)-2-chloro-N-(pyridin-3-ylsulfonyl)benzamide], the figures for the IC50 at SHP2 (PTPN11/SHP2-FL) and in the assay with MiaPaCa-2 cells were at most 10 nM and 500 to 5000 nM, respectively.
As for `CC1(CN)CCN(c2cnc(Sc3cccc(NC(=O)NS(=O)(=O)C4CC4)c3Cl)c(N)n2)CC1` [Example 43, N-((3-((3-amino-5-(4-(aminomethyl)-4-methylpiperidin-1-yl)pyrazin-2-yl)thio)-2-chlorophenyl)carbamoyl)cyclopropanesulfonamide], the IC50 at SHP2 (PTPN11/SHP2-FL) was at most 10 nM; in the assay with MiaPaCa-2 cells, at most 500 nM.
Regarding `CC1(CN)CCN(c2cnc(Sc3cccc(C(=O)NS(=O)(=O)C4CC4)c3Cl)c(N)n2)CC1` [Example 36, 3-((3-amino-5-(4-(aminomethyl)-4-methylpiperidin-1-yl)pyrazin-2-yl)thio)-2-chloro-N-(cyclopropylsulfonyl)benzamide], the values for the half-inhibitory concentration (IC50) on SHP2 (PTPN11/SHP2-FL) and with MiaPaCa-2 cells were 10 to 100 nM and 500 to 5000 nM, respectively.
As to `CC1(CN)CCN(c2cnc(Sc3cccc(C(=O)NS(=O)(=O)c4ccccc4F)c3Cl)cn2)CC1` [Example 23, 3-((5-(4-(aminomethyl)-4-methylpiperidin-1-yl)pyrazin-2-yl)thio)-2-chloro-N-((2-fluorophenyl)sulfonyl)benzamide], the IC50 at SHP2 (PTPN11/SHP2-FL) is at most 10 nM; with MiaPaCa-2 cells, 500 to 5000 nM.
As to `CC1(CN)CCN(c2cnc(Sc3cccc(C(=O)NS(=O)(=O)c4ccncc4)c3Cl)c(N)n2)CC1` [Example 39, 3-((3-amino-5-(4-(aminomethyl)-4-methylpiperidin-1-yl)pyrazin-2-yl)thio)-2-chloro-N-(pyridin-4-ylsulfonyl)benzamide], the results for the IC50 on SHP2 (PTPN11/SHP2-FL) and with MiaPaCa-2 cells were 10 to 100 nM and 5000 to 50000 nM, respectively.
